In patent US10975069B2, “Sigma-2 receptor ligand drug conjugates as antitumor compounds, methods of synthesis and uses thereof” (priority 2014, dated 2021):

Key:
[1] = system: PDAC patient-derived xenograft; experiment: PDAC patient-derived mouse xenograft model; format: in vivo; details: daily i.p. 375 nmoles for 2 weeks
Protocol: SW V-49s was also tested on a PDAC patient-derived mouse xenograft model, which is more clinically relevant. Surgical PDAC specimens (2×2 mm pieces) were obtained and implanted subcutaneously into the flanks of anesthetized NOD SCID mice. Then, tumors were harvested and implanted in the right flank of Athymic female nude mice (6 weeks old. National Cancer Institute Laboratories). These mice were treated with daily i.p. injections of […] and vehicle for 14 days. Mice were randomized into 2 groups (n=15). Drug treatment was started when the mean tumors diameter was ^˜6 mm. Mice received daily intra peritoneal injections with 375 nmoles in 100 μL/mouse of SW V-49s and vehicle for 2 weeks. Tumors were measured every other day. Mice were euthanized when tumors reached a diameter of 2 cm or ulcerated.

[2] = target: T1, sigma-2 receptors (Homo sapiens, UniProt Q5BJF2); experiment: Competitive inhibition of internalization of fluorescent sigma-2 ligand SW 120 (flow cytometry); format: cell-based; details: increasing concentrations of SW V-49s (0, 10, 30, 50), 30 min 37 °C, then SW120; FIG. 3
T1 construct: endogenous in cells
T1 sequence (Q5BJF2 whole entry): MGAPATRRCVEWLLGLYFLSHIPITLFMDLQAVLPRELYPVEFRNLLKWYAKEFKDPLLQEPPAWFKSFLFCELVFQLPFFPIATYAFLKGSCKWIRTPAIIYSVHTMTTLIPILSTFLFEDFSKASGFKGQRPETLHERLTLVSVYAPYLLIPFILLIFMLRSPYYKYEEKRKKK
Protocol: In these experiments, competitive binding assays of SW V-49s with the fluorescently labeled sigma-2 ligand SW 120 of structure
AsPC-1 cells (5×10^5/well) were seeded into a 6 well plate for 24 hours before treatment. The cells were then incubated with […] of SW V-49s for 30 minutes at 37° C. Subsequently, 10 nM of fluorescently labeled sigma-2 ligand SW120 was added to the cell culture medium containing SW V-49s. After 30 minute of incubation at 37° C., cells were washed twice with phosphate buffered saline (PBS) and harvested with 0.05% trypsin EDTA (Life Technologies. Grand Island, N.Y.). Thereafter, the cells were centrifuged at 1000×g for 5 minutes and the pellets were washed twice with PBS. Internalization of SW 120 was determined by flow cytometer (FACSCalibur™, BD Biosciences, San Jose, Calif.).

SMILES: CCOc1ccccc1-n1c(CN2CCN(C(=O)COc3ccc(CNCCCCCCN4C5CCCC4CC(OC(=O)Nc4cc(C)ccc4OC)C5)cc3)CC2)nc2ccccc2c1=O.O=C(O)C(=O)O (stereo not shown) [SW V-49s]
- tolerability [1]: tolerated the treatment well without obvious off-target effects
- growth rate of established tumors ([1]; FIG. 14C): markedly slowed the growth rate of the established tumors
- median survival ([1]; vehicle 33 days, FIG. 14D): 58 days
- blocking of SW 120 internalization [2]: efficient blocking of SW 120 internalization
